Experimental data from patent publication US20040043919A1, “Method for the treatment of neurological and neuropsychological disorders” (priority 2003, published 2004).

Key:
[1] = tested on: rats; conditions: administered into the dorsal periaqueductal gray matter; cited from earlier work
[2] = target: T1, attractin from human plasma (Homo sapiens, UniProt O75882); assay: Proteolytic activity of purified attractin (chromogenic substrate kinetics); assay type: biochemical
T1 construct: was prepared from 100 ml plasma from healthy humans; tissue Baxter GmbH Germany, Plasmazentrum Halle (supplier of the plasma); host or cells: human plasma
Description: (§1) Attractin from human plasma (Baxter GmbH Germany, Plasmazentrum Halle) was prepared from 100 ml plasma from healthy humans. Matrix-assisted laser desorption/ionisation mass spectrometry was carried out using the Hewlett-Packard G2025 LD-TOF System.
(§2) In further studies the proteolytic activity of attractin has been investigated. […] In addition, the cleavage of bioactive peptides such as NP Y, RANTES, GIP, and Glucagon by purified attractin has been analyzed. […] Previously, differences within hydrolysis of the chemokine RANTES by DP IV and attractin have been described^4.

[3] = target: T1, attractin from human plasma; assay: MALDI-TOF analysis of peptide cleavage by purified attractin in presence or absence of isoleucyl-thiazolidine; assay type: biochemical; conditions: peptide 25 μM, 37° C.; for Cleavage of bioactive peptide by purified attractin: tricine/HCl pH 7.6, MALDI-TOF (FIG. 1)
Description: as §1
To obtain spectra of peptides (25 μM) by the treatment of purified DP IV and attractin in the presence or absence of isoleucyl-thiazolidine (10 μM), substrates were incubated at 37° C. with 40 mM tricine/HCl buffer pH 7.6 and enzyme solution in a 2:2:1 ratio. Samples of the reaction mixtures were removed at various time intervals and mixed with equal volumes of the matrix solution. By mixing assay sample and matrix, the low pH of the matrix solution stopped the enzymatic reaction. A small volume of this mixture was transferred to a probe tip and immediately evaporated in a Hewlett-Packard G2024A Sample Prep Accessory.
as §2

[4] = tested on: olfactory bulbectomized rats; conditions: 7-day i.c.v. administration; cited from earlier work
[5] = Anxiolytic effect on administration of the attractin inhibitor; assay type: in vivo; conditions: no method or data given

T1 sequence (O75882 84-1272 isoform O75882-2 limits assumed): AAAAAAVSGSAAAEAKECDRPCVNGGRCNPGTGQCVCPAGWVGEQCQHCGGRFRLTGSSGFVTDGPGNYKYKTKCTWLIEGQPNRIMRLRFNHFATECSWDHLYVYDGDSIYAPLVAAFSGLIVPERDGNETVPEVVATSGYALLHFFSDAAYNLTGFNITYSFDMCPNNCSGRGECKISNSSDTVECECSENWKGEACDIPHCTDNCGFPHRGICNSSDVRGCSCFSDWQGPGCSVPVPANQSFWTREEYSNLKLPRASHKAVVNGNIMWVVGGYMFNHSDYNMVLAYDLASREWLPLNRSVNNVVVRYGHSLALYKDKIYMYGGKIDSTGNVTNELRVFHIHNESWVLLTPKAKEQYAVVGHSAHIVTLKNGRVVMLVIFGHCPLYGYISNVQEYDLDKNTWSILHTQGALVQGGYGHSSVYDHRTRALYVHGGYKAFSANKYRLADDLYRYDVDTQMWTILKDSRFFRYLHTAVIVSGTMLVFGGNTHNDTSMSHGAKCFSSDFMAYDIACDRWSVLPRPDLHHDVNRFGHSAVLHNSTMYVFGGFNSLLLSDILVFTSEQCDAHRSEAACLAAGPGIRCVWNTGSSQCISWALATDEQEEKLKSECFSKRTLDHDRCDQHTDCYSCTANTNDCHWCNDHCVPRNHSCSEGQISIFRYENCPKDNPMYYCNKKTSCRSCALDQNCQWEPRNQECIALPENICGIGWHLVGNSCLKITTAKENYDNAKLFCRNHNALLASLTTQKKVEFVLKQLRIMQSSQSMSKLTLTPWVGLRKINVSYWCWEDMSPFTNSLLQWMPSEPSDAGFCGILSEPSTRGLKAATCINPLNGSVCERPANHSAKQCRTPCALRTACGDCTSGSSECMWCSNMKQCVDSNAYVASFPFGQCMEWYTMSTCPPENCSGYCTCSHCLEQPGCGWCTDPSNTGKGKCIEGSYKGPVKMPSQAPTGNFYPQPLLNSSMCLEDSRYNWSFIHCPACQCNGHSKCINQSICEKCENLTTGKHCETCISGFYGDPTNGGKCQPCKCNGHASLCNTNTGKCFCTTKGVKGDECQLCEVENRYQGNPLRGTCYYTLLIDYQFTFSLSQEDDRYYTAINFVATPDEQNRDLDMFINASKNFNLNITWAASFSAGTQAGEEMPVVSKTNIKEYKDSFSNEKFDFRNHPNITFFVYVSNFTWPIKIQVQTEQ

NC(N)=NCCC[C@@H](NC(=O)C(c1ccccc1)c1ccccc1)C(=O)NCc1ccc(O)cc1 [BIBP3226]
Time spent in active social interaction [1]: decreased the time spent in active social interaction

NCC(=O)N1CCCC1C(=O)Nc1ccc([N+](=O)[O-])cc1 (stereo not drawn) [Gly-Pro-pNA]
Km [2]: 140 µM

Neuropeptide Y [NP Y]
Cleavage of bioactive peptide by purified attractin [3]: capable of releasing the N-terminal dipeptide Tyr-Pro | Behavioral and neurotransmitter deficits [4]: attenuated behavioral and neurotransmitters deficits

RANTES1-15: synthetic N-terminal fragment 1-15 of the chemokine RANTES (SPYSSDTTPCCFAYI; UniProt P13501 24-38, looked up, fragment)
Cleavage of bioactive peptide by purified attractin [3]: capable of releasing sequentially the first (Ser-Pro) as well as the second dipeptide (Tyr-Ser)

isoleucyl-thiazolidine hemifumarate
Cleavage of NP Y by attractin in presence of inhibitor ([3]; isoleucyl-thiazolidine 10 μM, pH 7.6, MALDI-TOF (FIG. 1B)): the cleavage was suppressed | Anxiolytic effect [5]: exhibits an anxiolytic effect
